Laboratory results published in the NIST ThermoML archive (doi:10.1021/je4009415).

Test: xn = mol fraction of the nth substance listed
Conditions: Liquid, Vibrating tube method

CCOC(=O)CC [ethyl propanoate] + CCCCCCCCC
Conditions	mass density [kg/m3]
288.15 K, x1 = 0.0545	727.07
288.15 K, x1 = 0.1159	733.36
288.15 K, x1 = 0.1434	736.52
288.15 K, x1 = 0.2218	745.49
288.15 K, x1 = 0.2412	747.88
288.15 K, x1 = 0.3158	757.46
288.15 K, x1 = 0.3579	763.17
288.15 K, x1 = 0.4121	770.89
288.15 K, x1 = 0.462	778.51
288.15 K, x1 = 0.5039	785.25
288.15 K, x1 = 0.5537	793.58
288.15 K, x1 = 0.6035	802.47
288.15 K, x1 = 0.6328	807.91
288.15 K, x1 = 0.6935	819.81
288.15 K, x1 = 0.7463	830.79
288.15 K, x1 = 0.7907	840.69
288.15 K, x1 = 0.895	866.09
288.15 K, x1 = 0.9488	880.62
288.15 K, x1 = 1	895.58
298.15 K, x1 = 0.0538	718.94
298.15 K, x1 = 0.0883	722.45
298.15 K, x1 = 0.142	728.05
298.15 K, x1 = 0.2152	736.31
298.15 K, x1 = 0.3007	746.83
298.15 K, x1 = 0.3555	754.11
298.15 K, x1 = 0.4078	761.4
298.15 K, x1 = 0.4592	769.02
298.15 K, x1 = 0.4988	775.19
298.15 K, x1 = 0.5511	783.72
298.15 K, x1 = 0.5917	790.84
298.15 K, x1 = 0.6562	802.56
298.15 K, x1 = 0.6962	810.32
298.15 K, x1 = 0.741	819.48
298.15 K, x1 = 0.7883	829.57
298.15 K, x1 = 0.8559	845.47
298.15 K, x1 = 0.9034	857.27
298.15 K, x1 = 0.9521	870.29
298.15 K, x1 = 1	884.15
308.15 K, x1 = 0.0558	711.17
308.15 K, x1 = 0.089	714.43
308.15 K, x1 = 0.1555	721.34
308.15 K, x1 = 0.2171	728.16
308.15 K, x1 = 0.2586	733.03
308.15 K, x1 = 0.3081	739.12
308.15 K, x1 = 0.3829	748.94
308.15 K, x1 = 0.4013	751.5
308.15 K, x1 = 0.4533	759.02
308.15 K, x1 = 0.5068	767.11
308.15 K, x1 = 0.5509	774.2
308.15 K, x1 = 0.6035	783.03
308.15 K, x1 = 0.6525	791.81
308.15 K, x1 = 0.6998	800.82
308.15 K, x1 = 0.7473	810.39
308.15 K, x1 = 0.794	820.41
308.15 K, x1 = 0.8533	833.93
308.15 K, x1 = 0.9006	845.51
308.15 K, x1 = 0.9506	858.66
308.15 K, x1 = 1	872.62
318.15 K, x1 = 0.0516	702.64
318.15 K, x1 = 0.0909	706.6
318.15 K, x1 = 0.1617	713.7
318.15 K, x1 = 0.219	719.88
318.15 K, x1 = 0.2413	722.49
318.15 K, x1 = 0.2923	728.44
318.15 K, x1 = 0.3518	735.96
318.15 K, x1 = 0.4062	743.15
318.15 K, x1 = 0.4541	749.92
318.15 K, x1 = 0.5056	757.57
318.15 K, x1 = 0.556	765.57
318.15 K, x1 = 0.6001	772.83
318.15 K, x1 = 0.6514	781.78
318.15 K, x1 = 0.6939	789.72
318.15 K, x1 = 0.7552	801.69
318.15 K, x1 = 0.7988	810.87
318.15 K, x1 = 0.8559	823.94
318.15 K, x1 = 0.9062	835.91
318.15 K, x1 = 0.9524	847.95
318.15 K, x1 = 1	861.08
328.15 K, x1 = 0.0514	694.83
328.15 K, x1 = 0.0965	699.04
328.15 K, x1 = 0.1572	705.05
328.15 K, x1 = 0.2061	710.14
328.15 K, x1 = 0.2627	716.42
328.15 K, x1 = 0.3163	722.76
328.15 K, x1 = 0.3619	728.36
328.15 K, x1 = 0.4059	734.14
328.15 K, x1 = 0.4602	741.6
328.15 K, x1 = 0.5053	748.09
328.15 K, x1 = 0.5543	755.65
328.15 K, x1 = 0.6024	763.42
328.15 K, x1 = 0.6525	772.01
328.15 K, x1 = 0.6996	780.61
328.15 K, x1 = 0.7535	791.02
328.15 K, x1 = 0.8019	801
328.15 K, x1 = 0.8606	813.96
328.15 K, x1 = 0.8933	821.83
328.15 K, x1 = 0.9504	836
328.15 K, x1 = 1	849.41
